Data as given in US6627743B1, “6-O-methylerythromycin A crystal form III” (Abbott Laboratories, priority 1999, dated 2003).
One block for each compound: values may come before it.

Assays:
[1] = Thermogravimetric analysis of the Form III solvate; format: physicochemical; details: 6 milligram sample, nitrogen purge, increase of 5° C. per minute (FIG. 4)
Description: Suitable temperatures for the conversion of the Form III solvate to the Form II crystal structure of 6-O-methylerythromycin A can vary depending on the conditions of the reaction. […] At atmospheric pressure, the preferred temperatures for the conversion of the Form III solvate to Form II are from about 80° C. to about 180° C. The more preferred temperatures for the conversion are from about 90° C. to about 105° C. Thermogravimetric analysis was conducted in the following manner. A T.A. Instruments Hi-Res thermogravimetric analyzer with Thermogravimetric Analyzer module 2950 was used along with DuPont 2100 TGA software version 5.1 A. The analysis parameters were: sample weight 6.3640 milligrams; heating rate was room temperature to 200° C. at 5° C./minute under a nitrogen purge.

[2] = Crystal form of the recrystallized solid after drying/heating, by powder X-ray diffraction; format: physicochemical
Description: Solids from the recrystallization were prepared according to the methods described above and analyzed under standard conditions with a calibrated Scintag X-ray diffraction system.
The wet solid was allowed to dry at room temperature. The air-dried sample was analyzed and the powder X-ray diffraction data was consistent with the powder X-ray diffraction pattern of a 6-O-methylerythromycin A Form III crystal structure. The air-dried sample was heated to a temperature between about 40° C. to about 45° C. in a calibrated vacuum oven for five days at atmospheric pressure.
A wet solid sample obtained from the recrystallization was heated in a calibrated convection oven to a temperature between about 100° C. and 105° C. […] The testing conditions and the corresponding result are summarized below in Table 1.
Crystallographic data was obtained by solvate single crystal analysis using a Scintag XDS-2000 powder X-ray diffraction system. Samples for X-ray diffraction analysis were prepared by spreading the sample powder (with no prior grinding required) in a thin layer on the sample holder and gently flattening the sample with a microscope slide. A Scintag X-ray Diffraction system was used with the following parameters: X-ray source is CuKα; range is 2-35°; scan rate is 1.00 degree/minute; step size is 0.0300 degree; and wavelength is 1.54060 angstroms.

Temperature of conversion of Form III solvate to Form II crystal structure [1]: about 175 °C
SMILES: CC[C@H]1OC(=O)[C@H](C)[C@@H](OC2CC(C)(OC)C(O)C(C)O2)[C@H](C)[C@@H](OC2OC(C)CC(N(C)C)C2O)[C@@](C)(OC)C[C@@H](C)C(=O)[C@H](C)[C@@H](O)[C@]1(C)O (some centres unmarked) [Form III solvate, 6-O-methylerythromycin A acetonitrile solvate]

Analytical Result (crystal form by powder X-ray diffraction) ([2]; wet solid from acetonitrile recrystallization): Form III spectra
SMILES: CC[C@H]1OC(=O)[C@H](C)[C@@H](OC2CC(C)(OC)C(O)C(C)O2)[C@H](C)[C@@H](OC2OC(C)CC(N(C)C)C2O)[C@@](C)(OC)C[C@@H](C)C(=O)[C@H](C)[C@@H](O)[C@]1(C)O (some centres unmarked) [Sample 1, 6-O-methylerythromycin A acetonitrile solvate]

Analytical Result (crystal form by powder X-ray diffraction) ([2]; air dried solid, room temperature): Form III spectra
SMILES: CC[C@H]1OC(=O)[C@H](C)[C@@H](OC2CC(C)(OC)C(O)C(C)O2)[C@H](C)[C@@H](OC2OC(C)CC(N(C)C)C2O)[C@@](C)(OC)C[C@@H](C)C(=O)[C@H](C)[C@@H](O)[C@]1(C)O (some centres unmarked) [Sample 2, 6-O-methylerythromycin A acetonitrile solvate]

Analytical Result (crystal form by powder X-ray diffraction) ([2]; heat 40° C.-45° C., 5 days): Form III spectra
SMILES: CC[C@H]1OC(=O)[C@H](C)[C@@H](OC2CC(C)(OC)C(O)C(C)O2)[C@H](C)[C@@H](OC2OC(C)CC(N(C)C)C2O)[C@@](C)(OC)C[C@@H](C)C(=O)[C@H](C)[C@@H](O)[C@]1(C)O (some centres unmarked) [Sample 3, 6-O-methylerythromycin A acetonitrile solvate]

Analytical Result (crystal form by powder X-ray diffraction) ([2]; heat to 100° C.-105° C., 24 hours): Form II spectra
SMILES: CC[C@H]1OC(=O)[C@H](C)[C@@H](OC2CC(C)(OC)C(O)C(C)O2)[C@H](C)[C@@H](OC2OC(C)CC(N(C)C)C2O)[C@@](C)(OC)C[C@@H](C)C(=O)[C@H](C)[C@@H](O)[C@]1(C)O (some centres unmarked) [Sample 4, 6-O-methylerythromycin A]
